test system: Xanthomonas campestris pv. campestris; experiment: Xanthomonas campestris pv. campestris in vitro cell test (bacteria growth in liquid culture); assay type: cell-based; conditions: 20 ppm of tested compound; 24 h of incubation
Protocol: Example A: Xanthomonas Campestris pv. Campestris In Vitro Cell Test
Culture medium: LB broth medium (Luria Broth Miller) Sigma
Inoculum: bacteria suspension
Compounds to be tested were solubilized in DMSO and the solution used to prepare the required range of concentrations. The final concentration of DMSO used in the assay was ≤1%.
Inoculum was prepared from a pre-culture of bacteria grown in liquid medium and diluted to the desired optical density (OD).
Compounds were evaluated for their ability to inhibit bacteria growth in liquid culture assay. The compounds were added in the desired concentrations to culture medium containing the bacteria suspension. After 24 h of incubation, the efficacy of compounds was determined by spectrometric measurement of bacteria growth. Inhibition was determined by comparing the absorbance values in wells containing the compounds with the absorbance in control wells without compounds.

SMILES	direct activity (inhibition of bacteria growth)
Cc1c(C(=O)NC2(C(=O)O)CC2)sc(Br)c1Br [I.06]	no direct activity
COC(=O)CNC(=O)c1sc(Br)c(Br)c1C [I.09]	no direct activity
CC/C=C\CCOC(=O)C(NC(=O)c1sc(Br)c(Br)c1C)C(C)C (stereo not drawn) [I.12]	no direct activity
CC[C@H](C)[C@H](NC(=O)c1sc(Br)c(Br)c1C)C(=O)OC [I.22]	no direct activity
CCOC(=O)[C@@H](NC(=O)c1sc(Cl)c(Cl)c1C)C(C)C [I.25]	no direct activity
CC[C@H](C)[C@H](NC(=O)c1sc(Cl)c(Cl)c1C)C(=O)OC [I.32]	no direct activity
CCOC(=O)C(NC(=O)c1sc(Cl)c(Cl)c1C)C(C)C (stereo not drawn) [I.40]	no direct activity
CCOC(=O)C(NC(=O)c1sc(Cl)c(Cl)c1C)C(C)C (stereo not drawn) [I.44]	no direct activity
COC(=O)C1(NC(=O)c2sc(Cl)c(Cl)c2C)CC1 [I.50]	no direct activity
Cc1c(C(=O)NC(C(=O)OCC2CC2)C(C)C)sc(Br)c1Br (stereo not drawn) [I.52]	no direct activity

test system: not listed separately; experiment: Log P by HPLC on reversed phase columns (EEC directive 79/831 Annex V.A8); assay type: physicochemical; conditions: method [a]: LC-UV, acidic range, 0.1% formic acid in water and acetonitrile as eluent
Protocol: In the above tables, measurement of Log P values was performed according to EEC directive 79/831 Annex V.A8 by HPLC (High Performance Liquid Chromatography) on reversed phase columns with the following methods: • ^[a]
If more than one Log P value is available within the same method, all the values are given and separated by “+”.
Calibration was done with straight-chain alkan2-ones (with 3 to 16 carbon atoms) with known Log P values (measurement of Log P values using retention times with linear interpolation between successive alkanones). Lambda-max-values were determined using UV-spectra from 200 nm to 400 nm and the peak values of the chromatographic signals.

SMILES	LogP
Cc1c(C(=O)NC(C(=O)OC2COC2)C(C)C)sc(Br)c1Br (stereo not drawn) [I.16]	3.58^[a]
CCOC(=O)C(NC(=O)c1sc(Br)c(Br)c1C)C(C)C (stereo not drawn) [I.62]	4.37^[a]
COC(=O)C(NC(=O)c1sc(Br)c(Br)c1C)C(C)C (stereo not drawn) [I.63]	3.91^[a]
CCOC(=O)C(Cc1ccccc1)NC(=O)c1sc(Br)c(Br)c1C (stereo not drawn) [I.65]	4.59^[a]
CCOC(=O)C(CC(C)C)NC(=O)c1sc(Br)c(Br)c1C (stereo not drawn) [I.68]	4.66^[a]
CCOC(=O)C(CC(C)C)NC(=O)c1sc(Br)c(Br)c1C (stereo not drawn) [I.69]	4.66^[a]
COC(=O)C(CCSC)NC(=O)c1sc(Br)c(Br)c1C (stereo not drawn) [I.70]	3.69^[a]
CCOC(=O)C(NC(=O)c1sc(Cl)c(Cl)c1C)c1ccccc1 (stereo not drawn) [I.75]	4.37^[a]
CCOC(=O)C(NC(=O)c1sc(Br)c(Br)c1C)c1ccccc1 (stereo not drawn) [I.76]	4.44^[a]
Cc1c(C(=O)NCC(=O)OC(C)C)sc(Br)c1Br [I.78]	3.40^[a]
Cc1c(C(=O)NCC(=O)O)sc(Cl)c1Cl [I.80]	2.05^[a]
Cc1c(C(=O)NC(C)C(=O)O)sc(Cl)c1Cl (stereo not drawn) [I.81]	2.28^[a]
Cc1c(C(=O)NC(C(=O)O)C(C)C)sc(Cl)c1Cl (stereo not drawn) [I.82]	2.96^[a]
CC[C@H](C)[C@H](NC(=O)c1sc(Cl)c(Cl)c1C)C(=O)O [I.83]	3.31^[a]
Cc1c(C(=O)NC(CC(C)C)C(=O)O)sc(Cl)c1Cl (stereo not drawn) [I.84]	3.31^[a]
CSCCC(NC(=O)c1sc(Cl)c(Cl)c1C)C(=O)O (stereo not drawn) [I.85]	2.80^[a]
Cc1c(C(=O)NC(Cc2ccccc2)C(=O)O)sc(Cl)c1Cl (stereo not drawn) [I.86]	3.31^[a]
CSCCC(NC(=O)c1sc(Br)c(Br)c1C)C(=O)O (stereo not drawn) [I.87]	2.89^[a]
Cc1c(C(=O)NC(Cc2ccccc2)C(=O)O)sc(Br)c1Br (stereo not drawn) [I.88]	3.30^[a]
CC[C@H](C)[C@H](NC(=O)c1sc(Br)c(Br)c1C)C(=O)O [I.89]	3.37^[a]
COC(=O)C(NC(=O)c1sc(Cl)c(Cl)c1C)C(C)C (stereo not drawn) [I.91]	4.34^[a]
CCOC(=O)CNC(=O)c1sc(Br)cc1C [IXa.02]	2.39^[a]

SMILES	LogP
CCOC(=O)C(NC(=O)c1sc(Br)cc1C)C(C)C (stereo not drawn) [IXa.03]	3.65^[a]
CCOC(=O)C(Cc1ccccc1)NC(=O)c1sc(Br)cc1C (stereo not drawn) [IXa.04]	3.90^[a]
CCOC(=O)C1(NC(=O)c2scc(Br)c2C)CC1 [IXb.01]	2.49^[a]
COC(=O)CNC(=O)c1sc(Cl)c(Cl)c1I [VIa.02]	2.90^[a]
COC(=O)CNC(=O)c1sc(Br)c(Br)c1I [VIa.03]	2.96^[a]
CCOC(=O)C1(NC(=O)c2sc(Cl)c(Cl)c2I)CC1 [VIa.05]	3.39^[a]
CCOC(=O)CNC(=O)c1sc(Br)c(Br)c1I [VIa.10]	3.35^[a]
CCOC(=O)CNC(=O)c1sc(Cl)c(Cl)c1I [VIa.12]	3.31^[a]
O=C(O)CNC(=O)c1sc(Cl)c(Cl)c1I [VIa.13]	2.21^[a]
CCOC(=O)C(Cc1ccccc1)NC(=O)c1sc(Br)c(Br)c1I (stereo not drawn) [VIa.14]	4.93^[a]
CCOC(=O)C(CC(C)C)NC(=O)c1sc(Br)c(Br)c1I (stereo not drawn) [VIa.15]	5.01^[a]
CCOC(=O)C(CCSC)NC(=O)c1sc(Br)c(Br)c1I (stereo not drawn) [VIa.16]	4.37^[a]
CCOC(=O)C(NC(=O)c1sc(Cl)c(Cl)c1Br)C(C)C (stereo not drawn) [VIa.17]	4.88^[a]
CCOC(=O)C(CC(C)C)NC(=O)c1sc(Cl)c(Cl)c1Br (stereo not drawn) [VIa.18]	5.17^[a]
CCOC(=O)C(CCSC)NC(=O)c1sc(Cl)c(Cl)c1Br (stereo not drawn) [VIa.19]	4.46^[a]
CCOC(=O)C(Cc1ccccc1)NC(=O)c1sc(Cl)c(Cl)c1Br (stereo not drawn) [VIa.20]	5.01^[a]
CCOC(=O)C(NC(=O)c1sc(Cl)c(Cl)c1I)C(C)C (stereo not drawn) [VIa.21]	4.85^[a]
CCOC(=O)C(CC(C)C)NC(=O)c1sc(Cl)c(Cl)c1I (stereo not drawn) [VIa.22]	5.08^[a]
CCOC(=O)C(CCSC)NC(=O)c1sc(Cl)c(Cl)c1I (stereo not drawn) [VIa.23]	4.40^[a]
CCOC(=O)C(Cc1ccccc1)NC(=O)c1sc(Cl)c(Cl)c1I (stereo not drawn) [VIa.24]	5.00^[a]
CCOC(=O)c1sc(NC(=O)OC(C)(C)C)c(Br)c1C [XIIIa.01]	4.62^[a]

same assay, conditions: reversed phase HPLC columns, method [a]: LC-UV, acidic range, 0.1% formic acid in water and acetonitrile as eluent

SMILES	chromatographic logP
CCOC(=O)C1(NC(=O)c2scc(Br)c2C)CC1 [IXa.01, ethyl 1-{[(4-bromo-3-methyl-2-thienyl)carbonyl]amino}cyclopropanecarboxylate]	2.57
COC(=O)c1sc(Cl)c(Cl)c1Br [VIIIa.02, methyl 3-bromo-4,5-dichlorothiophene-2-carboxylate]	4.11
O=C(O)c1sc(Cl)c(Cl)c1Br [VIIIa.03, 3-bromo-4,5-dichlorothiophene-2-carboxylic acid]	2.52
CCOC(=O)CNC(=O)c1sc(Cl)c(Cl)c1Br [VIa.01, ethyl N-[(3-bromo-4,5-dichloro-2-thienyl)carbonyl]glycinate]	3.33
Cc1c(C(=O)O)sc(NC(=O)OC(C)(C)C)c1Br [XIIIa.02, 4-bromo-5-[(tert-butoxycarbonyl)amino]-3-methylthiophene-2-carboxylic acid]	2.86
CCOC(=O)C1(NC(=O)c2sc(N)c(Br)c2C)CC1 [Xa.01, ethyl 1-{[(5-amino-4-bromo-3-methyl-2-thienyl)carbonyl]amino}cyclopropanecarboxylate]	1.97

same assay, conditions: reversed phase HPLC columns, method [b]: LC-UV, neutral range, 0.001 molar ammonium acetate solution in water and acetonitrile as eluent

SMILES	chromatographic logP
CCOC(=O)C1(NC(=O)c2sc(NC(=O)OC(C)(C)C)c(Br)c2C)CC1 [XIa.01, ethyl 1-[({4-bromo-5-[(tert-butoxycarbonyl)amino]-3-methyl-2-thienyl}carbonyl)amino]cyclopropanecarboxylate]	3.44

same assay, conditions: reversed phase HPLC columns, value given in preparation example; method variant not stated

SMILES	chromatographic logP
COC(=O)c1sc(Cl)c(Cl)c1Br [VIIIa.02, methyl 3-bromo-4,5-dichlorothiophene-2-carboxylate]	3.99
O=C(O)c1sc(Cl)c(Cl)c1Br [VIIIa.03, 3-bromo-4,5-dichlorothiophene-2-carboxylic acid]	2.51
CCOC(=O)CNC(=O)c1sc(Cl)c(Cl)c1Br [VIa.01, ethyl N-[(3-bromo-4,5-dichloro-2-thienyl)carbonyl]glycinate]	3.33
CCOC(=O)C1(NC(=O)c2sc(NC(=O)OC(C)(C)C)c(Br)c2C)CC1 [XIa.01, ethyl 1-[({4-bromo-5-[(tert-butoxycarbonyl)amino]-3-methyl-2-thienyl}carbonyl)amino]cyclopropanecarboxylate]	3.28
CCOC(=O)C1(NC(=O)c2sc(N)c(Br)c2C)CC1 [Xa.01, ethyl 1-{[(5-amino-4-bromo-3-methyl-2-thienyl)carbonyl]amino}cyclopropanecarboxylate]	1.92
COC(=O)c1sc(Cl)c(Cl)c1N [methyl 3-amino-4,5-dichlorothiophene-2-carboxylate]	3.11
